Experimental data: ChEMBL document CHEMBL2069276, “Identification of a novel serum and glucocorticoid regulated kinase-1 (SGK1) ligand from virtual screening” (Bioorg Med Chem Lett, 2012)
Where a chain is given by its changes, count along the chain named. Calls of active or inactive are those of the source. The rule behind the calls is not given here.

How the values were obtained:
[1] = biological target: T1, Serine/threonine-protein kinase Sgk1 (Homo sapiens) (UniProt O00141); test: Inhibition of constitutively active SGK1 expressed in human HEK293 cells assessed as inhibition of FOXO3a phosphorylation at Thr 32 after 40 hrs; type: cell-based
T1 sequence (whole entry): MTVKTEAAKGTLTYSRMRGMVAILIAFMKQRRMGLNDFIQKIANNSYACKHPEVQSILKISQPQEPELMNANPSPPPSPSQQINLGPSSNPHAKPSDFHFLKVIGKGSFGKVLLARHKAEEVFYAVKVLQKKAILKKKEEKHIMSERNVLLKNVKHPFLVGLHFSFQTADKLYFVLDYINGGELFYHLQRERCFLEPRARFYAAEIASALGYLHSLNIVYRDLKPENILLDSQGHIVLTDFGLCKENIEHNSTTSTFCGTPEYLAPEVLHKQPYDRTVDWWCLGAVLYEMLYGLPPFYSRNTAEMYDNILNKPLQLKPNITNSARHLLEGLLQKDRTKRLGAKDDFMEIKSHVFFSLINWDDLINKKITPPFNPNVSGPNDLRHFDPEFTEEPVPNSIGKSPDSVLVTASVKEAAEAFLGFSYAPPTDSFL

[2] = test system: T2, Serine/threonine-protein kinase Sgk1 (Homo sapiens), O00141 [S422D]; test: Inhibition of SGK1 S422D mutant expressed in human HEK293 cells assessed as inhibition of FOXO3a phosphorylation at Thr 32 after 40 hrs; type: cell-based
T2 sequence (whole entry): T1 sequence (whole entry) with S422D

HEK293 [3] = test: Induction of vacuolization in human HEK293 cells at >1 uM; type: cell-based
[4] = biological target: T3, Serine/threonine-protein kinase Sgk1 (Homo sapiens, UniProt O00141); test: Inhibition of human recombinant SGK1
T3 sequence (O00141 whole entry): T1 sequence (whole entry)

[5] = biological target: T1, Serine/threonine-protein kinase Sgk1 (Homo sapiens); test: Inhibition of constitutively active SGK1 expressed in human HEK293 cells assessed as inhibition of FOXO3a phosphorylation at Thr 32 at 100 uM after 40 hrs; type: cell-based
[6] = test system: T2, Serine/threonine-protein kinase Sgk1 (Homo sapiens), O00141 [S422D]; test: Inhibition of SGK1 S422D mutant expressed in human HEK293 cells assessed as inhibition of FOXO3a phosphorylation at Thr 32 at 100 uM after 40 hrs; type: cell-based
HEK293 [7] = test: Induction of vacuolization in human HEK293 cells up to 100 uM; type: cell-based

SMILES: O=C(O)c1ccc(-c2c[nH]c3ncc(-c4ccccc4)cc23)cc1C1CCCC1 [GSK-650394]
- inhibition [1]: Dose-dependent effect
- inhibition [2]: Dose-dependent effect
- Activity (HEK293 [3]): Toxic

SMILES: COc1ccc(NC(=O)Cc2nc(-c3ccc([N+](=O)[O-])cc3)cs2)cc1
- IC50 [4]: 60 µM
- inhibition [5]: Active
- inhibition [6]: Active
- Activity (HEK293 [7]): Non-toxic
